Source: the supplement of paper PMC10307832

Columns and labels:
Assay in all cases: relative viability (nuclei count vs DMSO), 5 days (fraction); higher = more cells survive
BGJ398 + Crizotinib = compound: CCN1CCN(c2ccc(Nc3cc(N(C)C(=O)Nc4c(Cl)c(OC)cc(OC)c4Cl)ncn3)cc2)CC1 [BGJ398] + C[C@@H](Oc1cc(-c2cnn(C3CCNCC3)c2)cnc1N)c1c(Cl)ccc(F)c1Cl [Crizotinib] (partner 1 µM)
Procedure, shortened: (§1)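 Medians of duplicate plates are given as relative viability. That measure is the nuclei count in treated wells divided by the count in vehicle wells. Counts were taken on 4× images of lung cancer cell lines in 1536-well plates, 5 days after pin-tool dosing the day after seeding with one drug alone or a fixed anchor-drug dose plus five library-drug doses (not always all listed) in √10 steps.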

BGJ398 + Linsitinib = compound: CCN1CCN(c2ccc(Nc3cc(N(C)C(=O)Nc4c(Cl)c(OC)cc(OC)c4Cl)ncn3)cc2)CC1 [BGJ398] + C[C@]1(O)C[C@@H](c2nc(-c3ccc4ccc(-c5ccccc5)nc4c3)c3c(N)nccn32)C1 [Linsitinib] (partner 1 µM)
Procedure, shortened: as §1

[1] = compound: C1=CC2=NC=CN=C2C=C1/C=C/3\C(=O)NC(=O)S3 + CC(=O)c1c(C)c2cnc(Nc3ccc(N4CCNCC4)cn3)nc2n(C2CCCC2)c1=O [Palbociclib] (partner 0.5 µM)
Procedure, shortened: as §1

[2] = compound: C1=CC2=NC=CN=C2C=C1/C=C/3\C(=O)NC(=O)S3 + CC1(C)CCC(c2ccc(Cl)cc2)=C(CN2CCN(c3ccc(C(=O)NS(=O)(=O)c4ccc(N[C@H](CCN5CCOCC5)CSc5ccccc5)c(S(=O)(=O)C(F)(F)F)c4)cc3)CC2)C1 [Navitoclax] (partner 0.5 µM)
Procedure, shortened: as §1

| Cell Line | relative viability (BGJ398 + Crizotinib; first compound 0.01 µM) | relative viability (BGJ398 + Crizotinib; first compound 0.03162 µM) | relative viability (BGJ398 + Crizotinib; first compound 0.1 µM) | relative viability (BGJ398 + Crizotinib; first compound 0.3162 µM) | relative viability (BGJ398 + Crizotinib; first compound 1 µM) | relative viability (BGJ398 + Linsitinib; first compound 0.01 µM) | relative viability (BGJ398 + Linsitinib; first compound 0.03162 µM) | relative viability (BGJ398 + Linsitinib; first compound 0.1 µM) | relative viability (BGJ398 + Linsitinib; first compound 0.3162 µM) | relative viability (BGJ398 + Linsitinib; first compound 1 µM) | relative viability ([1]; first compound 0.02 µM) | relative viability ([1]; first compound 0.06325 µM) | relative viability ([1]; first compound 0.2 µM) | relative viability ([1]; first compound 0.6325 µM) | relative viability ([1]; first compound 2 µM) | relative viability ([2]; first compound 0.02 µM) | relative viability ([2]; first compound 0.06325 µM) | relative viability ([2]; first compound 0.2 µM) | relative viability ([2]; first compound 0.6325 µM) | relative viability ([2]; first compound 2 µM) |
| --- | --- | --- | --- | --- | --- | --- | --- | --- | --- | --- | --- | --- | --- | --- | --- | --- | --- | --- | --- | --- |
| HCC-44 | 0.751 | 0.738 | 0.86 | 0.817 | 0.701 | 0.63 | 0.616 | 0.7 | 0.76 | 0.629 | 0.866 | 0.946 | 1.03 | 0.969 | 0.919 | 0.969 | 1.02 | 0.946 | 1.02 | 0.892 |
| HCC-78 | 0.379 | 0.313 | 0.394 | 0.334 | 0.348 | 0.378 | 0.463 | 0.614 | 0.541 | 0.546 | 0.471 | 0.475 | 0.483 | 0.535 | 0.423 | 0.667 | 0.641 | 0.741 | 0.733 | 0.767 |
| HCC-366 | 0.474 | 0.66 | 0.768 | 0.627 | 0.59 | 0.743 | 0.736 | 0.699 | 0.801 | 0.784 | 0.355 | – | 0.357 | 0.366 | 0.374 | 1.1 | 0.776 | 1.1 | 1.1 | 0.897 |
| HCC-827 | 0.964 | – | 0.92 | 0.973 | 0.938 | 0.95 | – | 0.872 | 0.942 | 0.989 | 0.616 | 0.436 | 0.425 | 0.51 | 0.473 | 0.999 | 1.01 | 1.03 | 1.08 | 1.03 |
| HOP-62 | 0.755 | 1 | 0.861 | 1.13 | 0.737 | 1 | 1.11 | 1.02 | 0.876 | 0.946 | 0.478 | 0.527 | 0.44 | 0.373 | 0.449 | 0.974 | 1.15 | 1.13 | 1.06 | 0.931 |
| IA-LM | 0.91 | 0.996 | 0.657 | 0.908 | 0.793 | 0.532 | 0.499 | 0.501 | 0.496 | 0.481 | – | – | – | – | – | 0.71 | 0.943 | 0.91 | 0.96 | 0.845 |
| LCLC-103H | 1.02 | 1.03 | 1.03 | 0.96 | 0.827 | 1.05 | 1.15 | 1.07 | 1.02 | 1.1 | 0.482 | 0.457 | 0.475 | 0.431 | 0.485 | – | – | – | – | – |
| NCI-H358 | 0.631 | 0.779 | 0.533 | 0.574 | 0.722 | 0.631 | 0.714 | 0.724 | 0.707 | 0.848 | 0.147 | 0.135 | 0.128 | 0.136 | 0.114 | – | – | – | – | – |
| NCI-H522 | – | – | – | – | – | – | – | – | – | – | 1.06 | 1.08 | 0.876 | 0.816 | 0.749 | – | – | – | – | – |
| NCI-H596 | 0.935 | 0.843 | 0.883 | 0.944 | 0.794 | 0.864 | 1 | 1.12 | 0.957 | 0.942 | – | – | – | – | – | 0.902 | 0.96 | 0.977 | 0.883 | 0.951 |
| NCI-H650 | 0.57 | 0.791 | 0.808 | 0.857 | 0.727 | 0.822 | 1.01 | 0.959 | 0.875 | 0.909 | 0.346 | 0.336 | 0.36 | 0.344 | 0.275 | – | – | – | – | – |
| NCI-H661 | – | 0.94 | 0.926 | 0.983 | 0.916 | 0.531 | 0.77 | 0.644 | 0.678 | 0.548 | 0.397 | 0.453 | 0.402 | 0.434 | 0.436 | – | – | – | – | – |
| NCI-H1299 | 0.94 | 0.864 | 0.951 | 0.969 | 0.97 | 0.926 | 1.03 | 0.974 | 0.928 | 0.727 | – | – | – | – | – | 1.04 | 1.08 | 1.04 | 1.04 | 1.06 |
| NCI-H1395 | – | – | – | – | – | 1.15 | 1.24 | 0.977 | 0.939 | 0.797 | 0.621 | 0.58 | 0.642 | 0.622 | 0.594 | 1.13 | 1.42 | 1.21 | 1.17 | 1.02 |
| NCI-H1563 | 0.875 | 0.812 | 0.846 | 0.794 | 0.728 | 1.17 | 1.18 | 0.947 | 0.792 | 0.724 | – | – | – | – | – | – | – | – | – | – |
| NCI-H1648 | – | – | – | – | – | – | – | – | – | – | 0.301 | 0.223 | 0.345 | – | 0.23 | – | – | – | – | – |
| NCI-H1650 | 0.955 | 1.01 | 0.862 | 0.879 | 0.937 | – | – | – | – | – | 0.218 | 0.43 | 0.37 | 0.347 | 0.343 | 1.23 | 1.3 | 1.14 | 1.14 | 1.3 |
| NCI-H1703 | 0.694 | 1.17 | 0.796 | 0.638 | 0.863 | 0.811 | 0.497 | 0.699 | 0.569 | 0.705 | – | – | – | – | – | 1.19 | 1.89 | 1.24 | 0.954 | 1 |
| NCI-H1793 | – | – | – | – | – | 0.804 | – | 0.833 | 0.71 | 0.756 | 0.289 | 0.296 | 0.282 | 0.336 | 0.288 | 0.509 | 0.439 | 0.496 | 0.36 | 0.83 |
| NCI-H2170 | 1.09 | 1.22 | 1.29 | 1.25 | 1.31 | – | – | – | – | – | 0.35 | 0.448 | 0.405 | 0.374 | 0.374 | 0.527 | 0.521 | 0.607 | 0.563 | 0.501 |
| NCI-H2342 | – | – | – | – | – | – | – | – | – | – | 0.508 | 0.524 | 0.547 | 0.484 | 0.498 | – | – | – | – | – |
| SW 900 | – | – | – | – | – | – | – | – | – | – | 0.491 | 0.545 | 0.511 | – | 0.602 | – | – | – | – | – |
